Columns and labels:
GTPase KRas = GTPase KRas (Homo sapiens, UniProt P01116, G12C)
[1] = Lipophilicity, logD of compound at 7.4; details: octanol/water
in vitro = details: human, liver microsomes, CLH
Description: (§2) Microsomal stability in human liver microsomes assessed as intrinsic clearance

[2] = […] stability in rat hepatocyte assessed as intrinsic clearance measured per million of cells; type: ADME, cell-based; details: hepatocytes
MDR1 and BCRP = assay: (§1) Efflux ratio of apparent permeability in dog MDCK cells transfected with MDR1 and BCRP at 0.1 uM; type: ADME, cell-based, Canis lupus familiaris
[3] = Unbound brain-to-plasma concentration ratio in Wistar Han rat at 2.3 microM/Kg, iv and measured after 4 hrs; type: ADME, organism-based; details: read-out: K(p,uu,brain)
[4] = Dissociation constant, pKa of the compound; type: physicochemical
NCI-H358 = assay: Antiproliferative activity against human NCI-H358 cells harboring KRAS G12C mutant cultured as 3D spheroids assessed as reduction in cell proliferation incubated for 3 days by CellTiter-Glo 3D reagent based assay; type: functional; details: NCI-H358, 72 h
[5] = human, microsomes
Description: as §2

[6] = as §1; type: ADME, cell-based, Canis lupus familiaris; details: mdck, 0.1 µM

GTPase KRas, sequence (P01116 whole entry G12C): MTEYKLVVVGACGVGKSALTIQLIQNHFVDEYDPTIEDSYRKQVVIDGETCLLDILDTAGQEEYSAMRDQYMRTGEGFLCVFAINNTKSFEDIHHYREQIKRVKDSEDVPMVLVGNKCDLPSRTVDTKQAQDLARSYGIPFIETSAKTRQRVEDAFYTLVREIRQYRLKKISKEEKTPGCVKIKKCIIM

Compound	IC50 (GTPase KRas) [nM]	logD ([1]; pH 7.4, logD)	microsomal CLint (in vitro) [µL/min/mg]	CLH [2] [µL/min]	efflux ratio at 0.1 µM (MDR1 and BCRP)	Kp uu at 4 h [3]	pKa [4]	IC50 (NCI-H358) [nM]	CLH [5] [µL/min/mg]	Ratio [6]	logD ([1]; pH 7.4)
C=CC(=O)N1CCN2Cc3cc(OC(F)F)c(-c4c(O)cccc4Cl)c(F)c3OC[C@H]2C1	160	2.7	18	143	–	–	–	–	–	–	–
C=CC(=O)N1CCN2Cc3ccc(-c4c(C)ccc5[nH]ncc45)c(Cl)c3OC[C@H]2C1	332	3.2	86	156	0.4	0.24	–	–	–	–	–
C#Cc1cc2c(c(F)c1-c1c(O)cccc1Cl)OC[C@H]1CN(C(=O)C=C)CCN1C2	19	2.7	16	23	1	0.05	3.9	–	–	–	–
C=CC(=O)N1CCN2Cc3ccc(-c4c(C)ccc5[nH]ncc45)c(Cl)c3OC[C@@H]2C1	1310	3.5	> 294	130	0.9	0.41	–	–	–	–	–
C#Cc1cc(CN2CCN(C(=O)C=C)CC2)cc(F)c1-c1c(O)cccc1Cl	13600	3.2	18	38	–	–	–	–	–	–	–
C=C(F)C(=O)N1CCN(c2nc(OC[C@@H]3CCCN3C)nc3c2CCN(c2cccc4cccc(Cl)c24)C3)C[C@@H]1CC#N [ADAGRASIB]	–	3.6	80	12	–	0.01	–	6	–	–	–
C=CC(=O)N1CCN2Cc3cc(OC)c(-c4c(O)cccc4Cl)c(F)c3OC[C@H]2C1	74	2.2	15	59	1.9	–	–	–	–	–	–
C=CC(=O)N1CCN2Cc3cc(OCCN(C)C)c(-c4c(O)cccc4Cl)c(F)c3OC[C@H]2C1	110	1	10	8	12.4	–	–	–	–	–	–
C=CC(=O)N1C[C@H]2CCOc3c(Cl)c(-c4c(O)cccc4F)c(F)c4ncnc(c34)N2C[C@H]1C	3	3.2	26	41	37.2	0.06	–	–	–	–	–
C=CC(=O)N1CCN(Cc2cc(F)c(-c3c(O)cccc3Cl)c(F)c2)CC1	7820	3.3	< 3	122	–	–	–	–	–	–	–
C=CC(=O)N1CCN2Cc3cc(Cl)c(-c4c(O)cccc4Cl)c(F)c3OC[C@H]2C1	29	3.2	17	44	0.6	–	–	–	–	–	–
C=CC(=O)N1CCN2Cc3cc(OC4CC4)c(-c4c(O)cccc4Cl)c(F)c3OC[C@H]2C1	81	2.6	25	174	–	–	–	–	–	–	–
C=CC(=O)N1CCN2Cc3ccc(-c4c(O)cccc4F)c(Cl)c3OC[C@H]2C1	231	–	33	52	0.8	–	–	–	–	–	–
C=CC(=O)N1CCN2c3ncnc4cc(-c5c(C)ccc6[nH]ncc56)c(Cl)c(c34)OC[C@@H]2C1	–	–	58	109	–	–	–	–	–	–	–
C=CC(=O)N1CCN(c2nc(=O)n(-c3c(C)ccnc3C(C)C)c3nc(-c4c(O)cccc4F)c(F)cc23)[C@@H](C)C1 [SOTORASIB]	–	2.3	36	18	–	0.01	–	1	–	–	–
C=CC(=O)N1CCN2C(=O)c3cc(OCCOC)c(-c4c(O)cccc4Cl)c(F)c3OC[C@H]2C1	99	2	41	48	–	–	–	–	–	–	–
C=CC(=O)N1CCN2Cc3cc(F)c(-c4c(O)cccc4F)c(Cl)c3OC[C@H]2C1	149	2.8	8	42	1.2	–	–	–	–	–	–
C=CC(=O)N1CCN2Cc3cc(F)c(-c4c(C)cccc4O)c(F)c3OC[C@H]2C1	90	2.4	19	29	1.2	0.15	–	–	–	–	–
C=CC(=O)N1CCN2Cc3cc(C(F)F)c(-c4c(O)cccc4Cl)c(F)c3OC[C@H]2C1	130	3	63	99	–	–	–	–	–	–	–
C=CC(=O)N1CCN2Cc3cc(C#N)c(-c4c(O)cccc4Cl)c(F)c3OC[C@H]2C1	16	2.5	13	54	6.5	–	–	–	–	–	–
C=CC(=O)N1CCN2Cc3cc(F)c(-c4c(O)cccc4Cl)c(F)c3OC[C@H]2C1.O	43	2.8	< 7	20	0.7	0.11	3.9	–	–	–	–
C=CC(=O)N1CCN2Cc3cc(F)c(-c4c(O)cccc4F)c(F)c3OC[C@H]2C1	279	2.5	5	18	–	–	–	–	–	–	–
C=CC(=O)N1CCN2C(=O)c3ccc(-c4c(C)ccc5[nH]ncc45)c(Cl)c3OC[C@@H]2C1	4300	2.8	54	93	1.4	–	–	–	–	–	–
C=CC(=O)N1CCN2Cc3cc(C4CC4)c(-c4c(O)cccc4Cl)c(F)c3OC[C@H]2C1	22	3.2	97	101	–	–	–	–	–	–	–
C=CC(=O)N1CCN2Cc3ccc(-c4c(C)ccc5[nH]ncc45)c(Cl)c3OCCC2C1 (stereo in doubt; 19)	8290	3.2	294	234	1.4	–	–	–	–	–	–
C=CC(=O)N1CCN2Cc3ccc(-c4c(C)ccc5[nH]ncc45)c(Cl)c3OCCC2C1 (stereo in doubt; 20)	4010	–	–	97	–	–	–	–	> 300	2.1	3.3
